This assay concerns the target T1, Adrenergic receptor alpha-2 (Rattus norvegicus, UniProt P22086+P19328+P22909).
T1 sequence (P22086 whole entry): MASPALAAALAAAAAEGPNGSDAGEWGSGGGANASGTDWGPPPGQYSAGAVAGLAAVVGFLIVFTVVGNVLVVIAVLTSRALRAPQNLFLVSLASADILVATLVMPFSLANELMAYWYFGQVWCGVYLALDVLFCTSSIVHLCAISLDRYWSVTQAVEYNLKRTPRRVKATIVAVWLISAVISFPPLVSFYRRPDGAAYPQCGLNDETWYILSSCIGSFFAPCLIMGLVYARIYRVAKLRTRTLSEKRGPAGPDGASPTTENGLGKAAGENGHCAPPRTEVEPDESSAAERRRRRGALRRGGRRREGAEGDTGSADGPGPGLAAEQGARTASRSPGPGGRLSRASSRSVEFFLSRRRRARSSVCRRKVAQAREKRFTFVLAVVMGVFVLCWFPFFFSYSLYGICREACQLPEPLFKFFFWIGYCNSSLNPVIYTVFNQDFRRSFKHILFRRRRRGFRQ
T1 sequence (P19328 whole entry): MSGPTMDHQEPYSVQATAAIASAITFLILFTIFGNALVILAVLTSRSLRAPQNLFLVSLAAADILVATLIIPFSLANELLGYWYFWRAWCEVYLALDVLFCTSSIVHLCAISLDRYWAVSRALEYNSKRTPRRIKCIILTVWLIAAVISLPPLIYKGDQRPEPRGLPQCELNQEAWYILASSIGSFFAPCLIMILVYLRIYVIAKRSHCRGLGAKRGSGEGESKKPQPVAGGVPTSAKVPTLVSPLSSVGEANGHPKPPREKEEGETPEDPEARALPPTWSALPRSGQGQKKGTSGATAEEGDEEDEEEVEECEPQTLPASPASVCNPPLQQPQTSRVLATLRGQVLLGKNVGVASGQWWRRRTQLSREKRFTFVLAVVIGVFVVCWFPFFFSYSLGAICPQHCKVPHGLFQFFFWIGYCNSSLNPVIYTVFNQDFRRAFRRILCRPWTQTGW
T1 sequence (P22909 whole entry): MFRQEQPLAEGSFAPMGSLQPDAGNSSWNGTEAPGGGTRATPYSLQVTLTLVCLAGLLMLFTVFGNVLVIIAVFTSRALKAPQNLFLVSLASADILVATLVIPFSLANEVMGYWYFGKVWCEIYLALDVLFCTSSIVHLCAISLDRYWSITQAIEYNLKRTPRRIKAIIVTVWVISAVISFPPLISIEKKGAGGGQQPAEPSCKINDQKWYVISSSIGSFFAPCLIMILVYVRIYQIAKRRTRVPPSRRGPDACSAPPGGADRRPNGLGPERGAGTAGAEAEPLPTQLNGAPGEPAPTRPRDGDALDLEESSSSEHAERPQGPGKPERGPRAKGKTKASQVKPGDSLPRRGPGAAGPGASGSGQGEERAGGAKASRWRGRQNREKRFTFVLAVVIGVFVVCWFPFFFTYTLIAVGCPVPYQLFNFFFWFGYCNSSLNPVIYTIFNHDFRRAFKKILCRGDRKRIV
Put plainly: In vitro inhibition of [3H]clonidine from alpha-2 adrenergic receptor of rat cortex.
`CCNS(=O)(=O)c1ccc2c(c1)CNC(CO)C2` (stereo not given): the Ki (in general, a dissociation constant, usually derived from enzyme kinetics or from competition with a known ligand) turned out to be 210 µM.
With `O=S(=O)(c1ccc2c(c1)CNC(CO)C2)N1CCSCC1` (stereo not given) the figure was 320 µM; with `O=S(=O)(Nc1ccc(Cl)cc1)c1ccc2c(c1)CNC(CO)C2` (stereo not given), 53 µM.
With `CCCNS(=O)(=O)c1ccc2c(c1)CNC(CO)C2` (stereo not given) the figure was 230 µM; with `O=S(=O)(NCC(F)(F)F)c1ccc2c(c1)CNC(CO)C2` (stereo not given), 340 µM.

The values above are taken from ChEMBL document CHEMBL1145283, “3-hydroxymethyl-7-(N-substituted aminosulfonyl)-1,2,3,4-tetrahydroisoquinoline inhibitors of phenylethanolamine N-methyltransferase that display remarkable potency and selectivity” (J Med Chem, 2005).
